Assay results: ChEMBL document CHEMBL4229438, “N-Acylhydrazones as drugs” (Bioorg Med Chem Lett, 2018)
Each block holds one compound with its values, some of them ahead of it.

Assays:
[1] = Half life in patient with solid tumor at 230 mg/m2, iv treated for 30 mins by HPLC-MS analysis; format: ADME, organism-based; details: human, in vivo
[2] = biological target: T1, Caspase-3 (Mus musculus) (UniProt P70677); details: 5 uM
T1 sequence (whole entry): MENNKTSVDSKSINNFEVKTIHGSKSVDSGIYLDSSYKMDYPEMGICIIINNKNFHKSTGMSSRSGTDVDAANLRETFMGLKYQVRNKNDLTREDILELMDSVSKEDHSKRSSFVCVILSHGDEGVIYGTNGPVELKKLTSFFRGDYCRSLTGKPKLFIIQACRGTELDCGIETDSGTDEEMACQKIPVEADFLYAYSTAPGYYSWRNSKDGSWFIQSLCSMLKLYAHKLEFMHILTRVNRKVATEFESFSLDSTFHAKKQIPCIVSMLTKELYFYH
Description: Activation of procaspase-3 in mouse K7M2 cells assessed as increase in cell death by measuring combination index at 5 uM after 24 hrs in presence of 100 nM doxorubucin by alamar blue assay

[3] = biological target: T1, Caspase-3 (Mus musculus); details: 4T1, 2.5 uM
Description: Activation of procaspase-3 in mouse 4T1 cells assessed as increase in cell death by measuring combination index at 2.5 uM after 24 hrs in presence of 10 nM doxorubucin by alamar blue assay

[4] = biological target: T1, Caspase-3 (Mus musculus); details: 5 uM; remark: listed apart in the source
Description: Activation of procaspase-3 in mouse K7M2 cells assessed as increase in cell death by measuring combination index at 5 uM after 24 hrs in presence of 10 nM doxorubucin by alamar blue assay

[5] = biological target: T1, Caspase-3 (Mus musculus); details: 15 uM
Description: Activation of procaspase-3 in mouse B16F10 cells assessed as increase in cell death by measuring combination index at 15 uM after 24 hrs in presence of 10 nM doxorubucin by alamar blue assay

[6] = biological target: T1, Caspase-3 (Mus musculus); details: 15 uM; remark: listed apart in the source
Description: Activation of procaspase-3 in mouse B16F10 cells assessed as increase in cell death by measuring combination index at 15 uM after 24 hrs in presence of 100 nM doxorubucin by alamar blue assay

[7] = biological target: T1, Caspase-3 (Mus musculus); details: 4T1, 2.5 uM; remark: listed apart in the source
Description: Activation of procaspase-3 in mouse 4T1 cells assessed as increase in cell death by measuring combination index at 2.5 uM after 24 hrs in presence of 100 nM doxorubucin by alamar blue assay

[8] = biological target: T1, Caspase-3 (Mus musculus); details: 15 uM; remark: listed apart in the source
Description: Activation of procaspase-3 in mouse B16F10 cells assessed as increase in cell death by measuring combination index at 15 uM after 24 hrs in presence of 250 nM doxorubucin by alamar blue assay

[9] = biological target: T1, Caspase-3 (Mus musculus); details: 7.5 uM
Description: Activation of procaspase-3 in mouse 3LL cells assessed as increase in cell death by measuring combination index at 7.5 uM after 24 hrs in presence of 10 nM doxorubucin by alamar blue assay

[10] = biological target: T1, Caspase-3 (Mus musculus); details: 7.5 uM; remark: listed apart in the source
Description: Activation of procaspase-3 in mouse B16F10 cells assessed as increase in cell death by measuring combination index at 7.5 uM after 24 hrs in presence of 50 nM doxorubucin by alamar blue assay

[11] = biological target: T1, Caspase-3 (Mus musculus); details: 7.5 uM; remark: listed apart in the source
Description: Activation of procaspase-3 in mouse B16F10 cells assessed as increase in cell death by measuring combination index at 7.5 uM after 24 hrs in presence of 100 nM doxorubucin by alamar blue assay

[12] = biological target: T1, Caspase-3 (Mus musculus); details: 7.5 uM; remark: listed apart in the source
Description: Activation of procaspase-3 in mouse 3LL cells assessed as increase in cell death by measuring combination index at 7.5 uM after 24 hrs in presence of 25 nM doxorubucin by alamar blue assay

[13] = biological target: T1, Caspase-3 (Mus musculus); details: 7.5 uM; remark: listed apart in the source
Description: Activation of procaspase-3 in mouse B16F10 cells assessed as increase in cell death by measuring combination index at 7.5 uM after 24 hrs in presence of 250 nM doxorubucin by alamar blue assay

[14] = biological target: T1, Caspase-3 (Mus musculus); details: EL4, 10 uM
Description: Activation of procaspase-3 in mouse EL4 cells assessed as increase in cell death by measuring combination index at 10 uM after 24 hrs in presence of 100 nM doxorubucin by alamar blue assay

[15] = biological target: T1, Caspase-3 (Mus musculus); details: 4T1, 5 uM
Description: Activation of procaspase-3 in mouse 4T1 cells assessed as increase in cell death by measuring combination index at 5 uM after 24 hrs in presence of 10 nM doxorubucin by alamar blue assay

[16] = biological target: T1, Caspase-3 (Mus musculus); details: 2.5 uM
Description: Activation of procaspase-3 in mouse 3LL cells assessed as increase in cell death by measuring combination index at 2.5 uM after 24 hrs in presence of 250 nM doxorubucin by alamar blue assay

[17] = biological target: T1, Caspase-3 (Mus musculus); details: 7.5 uM; remark: listed apart in the source
Description: Activation of procaspase-3 in mouse 3LL cells assessed as increase in cell death by measuring combination index at 7.5 uM after 24 hrs in presence of 50 nM doxorubucin by alamar blue assay

[18] = biological target: T1, Caspase-3 (Mus musculus); details: EL4, 5 uM
Description: Activation of procaspase-3 in mouse EL4 cells assessed as increase in cell death by measuring combination index at 5 uM after 24 hrs in presence of 100 nM doxorubucin by alamar blue assay

[19] = biological target: T1, Caspase-3 (Mus musculus); details: 4T1, 5 uM; remark: listed apart in the source
Description: Activation of procaspase-3 in mouse 4T1 cells assessed as increase in cell death by measuring combination index at 5 uM after 24 hrs in presence of 50 nM doxorubucin by alamar blue assay

[20] = biological target: T1, Caspase-3 (Mus musculus); details: 7.5 uM; remark: listed apart in the source
Description: Activation of procaspase-3 in mouse B16F10 cells assessed as increase in cell death by measuring combination index at 7.5 uM after 24 hrs in presence of 10 nM doxorubucin by alamar blue assay

[21] = biological target: T1, Caspase-3 (Mus musculus); details: EL4, 5 uM; remark: listed apart in the source
Description: Activation of procaspase-3 in mouse EL4 cells assessed as increase in cell death by measuring combination index at 5 uM after 24 hrs in presence of 1000 nM doxorubucin by alamar blue assay

[22] = biological target: T1, Caspase-3 (Mus musculus); details: 7.5 uM; remark: listed apart in the source
Description: Activation of procaspase-3 in mouse 3LL cells assessed as increase in cell death by measuring combination index at 7.5 uM after 24 hrs in presence of 250 nM doxorubucin by alamar blue assay

[23] = biological target: T1, Caspase-3 (Mus musculus); details: 5 uM; remark: listed apart in the source
Description: Activation of procaspase-3 in mouse K7M2 cells assessed as increase in cell death by measuring combination index at 5 uM after 24 hrs in presence of 250 nM doxorubucin by alamar blue assay

[24] = biological target: T1, Caspase-3 (Mus musculus); details: EL4, 5 uM; remark: listed apart in the source
Description: Activation of procaspase-3 in mouse EL4 cells assessed as increase in cell death by measuring combination index at 5 uM after 24 hrs in presence of 500 nM doxorubucin by alamar blue assay

[25] = biological target: T1, Caspase-3 (Mus musculus); details: 5 uM; remark: listed apart in the source
Description: Activation of procaspase-3 in mouse K7M2 cells assessed as increase in cell death by measuring combination index at 5 uM after 24 hrs in presence of 25 nM doxorubucin by alamar blue assay

[26] = biological target: T1, Caspase-3 (Mus musculus); details: 7.5 uM; remark: listed apart in the source
Description: Activation of procaspase-3 in mouse 3LL cells assessed as increase in cell death by measuring combination index at 7.5 uM after 24 hrs in presence of 100 nM doxorubucin by alamar blue assay

[27] = biological target: T1, Caspase-3 (Mus musculus); details: 2.5 uM; remark: listed apart in the source
Description: Activation of procaspase-3 in mouse K7M2 cells assessed as increase in cell death by measuring combination index at 2.5 uM after 24 hrs in presence of 50 nM doxorubucin by alamar blue assay

[28] = biological target: T1, Caspase-3 (Mus musculus); details: EL4, 10 uM; remark: listed apart in the source
Description: Activation of procaspase-3 in mouse EL4 cells assessed as increase in cell death by measuring combination index at 10 uM after 24 hrs in presence of 500 nM doxorubucin by alamar blue assay

[29] = biological target: T1, Caspase-3 (Mus musculus); details: 4T1, 2.5 uM; remark: listed apart in the source
Description: Activation of procaspase-3 in mouse 4T1 cells assessed as increase in cell death by measuring combination index at 2.5 uM after 24 hrs in presence of 50 nM doxorubucin by alamar blue assay

[30] = biological target: T1, Caspase-3 (Mus musculus); details: 2.5 uM; remark: listed apart in the source
Description: Activation of procaspase-3 in mouse K7M2 cells assessed as increase in cell death by measuring combination index at 2.5 uM after 24 hrs in presence of 100 nM doxorubucin by alamar blue assay

[31] = biological target: T1, Caspase-3 (Mus musculus); details: 15 uM; remark: listed apart in the source
Description: Activation of procaspase-3 in mouse B16F10 cells assessed as increase in cell death by measuring combination index at 15 uM after 24 hrs in presence of 25 nM doxorubucin by alamar blue assay

[32] = biological target: T1, Caspase-3 (Mus musculus); details: EL4, 10 uM; remark: listed apart in the source
Description: Activation of procaspase-3 in mouse EL4 cells assessed as increase in cell death by measuring combination index at 10 uM after 24 hrs in presence of 1000 nM doxorubucin by alamar blue assay

[33] = biological target: T1, Caspase-3 (Mus musculus); details: EL4, 10 uM; remark: listed apart in the source
Description: Activation of procaspase-3 in mouse EL4 cells assessed as increase in cell death by measuring combination index at 10 uM after 24 hrs in presence of 2500 nM doxorubucin by alamar blue assay

[34] = biological target: T1, Caspase-3 (Mus musculus); details: 4T1, 5 uM; remark: listed apart in the source
Description: Activation of procaspase-3 in mouse 4T1 cells assessed as increase in cell death by measuring combination index at 5 uM after 24 hrs in presence of 100 nM doxorubucin by alamar blue assay

[35] = biological target: T1, Caspase-3 (Mus musculus); details: EL4, 5 uM; remark: listed apart in the source
Description: Activation of procaspase-3 in mouse EL4 cells assessed as increase in cell death by measuring combination index at 5 uM after 24 hrs in presence of 2500 nM doxorubucin by alamar blue assay

[36] = biological target: T1, Caspase-3 (Mus musculus); details: 4T1, 5 uM; remark: listed apart in the source
Description: Activation of procaspase-3 in mouse 4T1 cells assessed as increase in cell death by measuring combination index at 5 uM after 24 hrs in presence of 250 nM doxorubucin by alamar blue assay

[37] = biological target: T1, Caspase-3 (Mus musculus); details: 4T1, 2.5 uM; remark: listed apart in the source
Description: Activation of procaspase-3 in mouse 4T1 cells assessed as increase in cell death by measuring combination index at 2.5 uM after 24 hrs in presence of 25 nM doxorubucin by alamar blue assay

[38] = biological target: T1, Caspase-3 (Mus musculus); details: 7.5 uM; remark: listed apart in the source
Description: Activation of procaspase-3 in mouse B16F10 cells assessed as increase in cell death by measuring combination index at 7.5 uM after 24 hrs in presence of 25 nM doxorubucin by alamar blue assay

[39] = biological target: T1, Caspase-3 (Mus musculus); details: 2.5 uM; remark: listed apart in the source
Description: Activation of procaspase-3 in mouse 3LL cells assessed as increase in cell death by measuring combination index at 2.5 uM after 24 hrs in presence of 50 nM doxorubucin by alamar blue assay

[40] = biological target: T1, Caspase-3 (Mus musculus); details: 2.5 uM; remark: listed apart in the source
Description: Activation of procaspase-3 in mouse K7M2 cells assessed as increase in cell death by measuring combination index at 2.5 uM after 24 hrs in presence of 250 nM doxorubucin by alamar blue assay

[41] = biological target: T1, Caspase-3 (Mus musculus); details: 4T1, 5 uM; remark: listed apart in the source
Description: Activation of procaspase-3 in mouse 4T1 cells assessed as increase in cell death by measuring combination index at 5 uM after 24 hrs in presence of 25 nM doxorubucin by alamar blue assay

[42] = biological target: T1, Caspase-3 (Mus musculus); details: 15 uM; remark: listed apart in the source
Description: Activation of procaspase-3 in mouse B16F10 cells assessed as increase in cell death by measuring combination index at 15 uM after 24 hrs in presence of 50 nM doxorubucin by alamar blue assay

[43] = biological target: T1, Caspase-3 (Mus musculus); details: 4T1, 2.5 uM; remark: listed apart in the source
Description: Activation of procaspase-3 in mouse 4T1 cells assessed as increase in cell death by measuring combination index at 2.5 uM after 24 hrs in presence of 250 nM doxorubucin by alamar blue assay

[44] = biological target: T1, Caspase-3 (Mus musculus); details: 2.5 uM; remark: listed apart in the source
Description: Activation of procaspase-3 in mouse K7M2 cells assessed as increase in cell death by measuring combination index at 2.5 uM after 24 hrs in presence of 10 nM doxorubucin by alamar blue assay

[45] = biological target: T1, Caspase-3 (Mus musculus); details: 2.5 uM; remark: listed apart in the source
Description: Activation of procaspase-3 in mouse 3LL cells assessed as increase in cell death by measuring combination index at 2.5 uM after 24 hrs in presence of 100 nM doxorubucin by alamar blue assay

[46] = biological target: T1, Caspase-3 (Mus musculus); details: EL4, 10 uM; remark: listed apart in the source
Description: Activation of procaspase-3 in mouse EL4 cells assessed as increase in cell death by measuring combination index at 10 uM after 24 hrs in presence of 1500 nM doxorubucin by alamar blue assay

[47] = biological target: T1, Caspase-3 (Mus musculus); details: 2.5 uM; remark: listed apart in the source
Description: Activation of procaspase-3 in mouse 3LL cells assessed as increase in cell death by measuring combination index at 2.5 uM after 24 hrs in presence of 25 nM doxorubucin by alamar blue assay

[48] = biological target: T1, Caspase-3 (Mus musculus); details: EL4, 5 uM; remark: listed apart in the source
Description: Activation of procaspase-3 in mouse EL4 cells assessed as increase in cell death by measuring combination index at 5 uM after 24 hrs in presence of 1500 nM doxorubucin by alamar blue assay

[49] = biological target: T1, Caspase-3 (Mus musculus); details: 5 uM; remark: listed apart in the source
Description: Activation of procaspase-3 in mouse K7M2 cells assessed as increase in cell death by measuring combination index at 5 uM after 24 hrs in presence of 50 nM doxorubucin by alamar blue assay

[50] = biological target: T1, Caspase-3 (Mus musculus); details: 2.5 uM; remark: listed apart in the source
Description: Activation of procaspase-3 in mouse K7M2 cells assessed as increase in cell death by measuring combination index at 2.5 uM after 24 hrs in presence of 25 nM doxorubucin by alamar blue assay

[51] = biological target: T1, Caspase-3 (Mus musculus); details: 2.5 uM; remark: listed apart in the source
Description: Activation of procaspase-3 in mouse 3LL cells assessed as increase in cell death by measuring combination index at 2.5 uM after 24 hrs in presence of 10 nM doxorubucin by alamar blue assay

[52] = test system: Thoracic aorta; test: Vasodilatory activity in Wistar rat thoracic aortic rings assessed as inhibition of noradrenaline-induced contraction; format: functional, tissue-based
[53] = biological target: Muscarinic acetylcholine receptor M3 (Rattus norvegicus, UniProt P08483); test: Agonist activity at endothelial M3 receptor in Wistar-Kyoto rat thoracic aortic rings assessed as inhibition of phenylephrine-induced contraction; format: functional
Muscarinic acetylcholine receptor M3, sequence (P08483 whole entry): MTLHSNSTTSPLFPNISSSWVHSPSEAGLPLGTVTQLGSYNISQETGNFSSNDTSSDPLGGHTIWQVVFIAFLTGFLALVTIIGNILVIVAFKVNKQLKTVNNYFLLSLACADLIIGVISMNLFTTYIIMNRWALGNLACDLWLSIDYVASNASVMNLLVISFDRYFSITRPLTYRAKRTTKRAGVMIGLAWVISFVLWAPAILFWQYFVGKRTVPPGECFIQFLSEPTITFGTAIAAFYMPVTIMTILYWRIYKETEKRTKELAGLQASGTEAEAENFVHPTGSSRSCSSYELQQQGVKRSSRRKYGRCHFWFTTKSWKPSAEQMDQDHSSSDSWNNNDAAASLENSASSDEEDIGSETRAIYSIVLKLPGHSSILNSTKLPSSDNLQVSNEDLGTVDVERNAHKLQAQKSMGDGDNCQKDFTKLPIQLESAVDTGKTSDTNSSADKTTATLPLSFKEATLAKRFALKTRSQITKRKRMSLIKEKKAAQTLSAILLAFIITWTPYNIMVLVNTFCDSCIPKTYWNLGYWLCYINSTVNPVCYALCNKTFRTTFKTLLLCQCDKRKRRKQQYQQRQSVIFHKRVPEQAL

[54] = test system: HL-60; test: Cytotoxicity against human HL60 cells by MTT assay; format: functional, cell-based
[55] = test system: HL-60; test: Cytotoxicity against human HL60 cells; format: functional, cell-based
[56] = test system: HCT-8; test: Cytotoxicity against human HCT8 cells; format: functional, cell-based
[57] = test system: OVCAR-8; test: Cytotoxicity against human OVCAR8 cells; format: functional, cell-based
[58] = Stability in rat plasma assessed as parent compound remaining at 100 uM after 10 hrs by LC-MS analysis; format: ADME, cell-free; details: read-out: Stability

Structure (SMILES): C=CCc1cccc(/C=N/NC(=O)CN2CCN(Cc3ccccc3)CC2)c1O
CI [2]: 0.49 to 42.8
CI [3]: 0.89 to 12.2
CI [4]: 0.56 to 26.4
CI [5]: 0.83 to 22.5
CI [6]: 0.53 to 40.7
CI [7]: 0.84 to 21.5
CI [8]: 0.39 to 62.2
CI [9]: 0.36 to 27.8
CI [10]: 0.84 to 20.1
CI [11]: 0.65 to 31
CI [12]: 0.41 to 32.3
CI [13]: 0.42 to 58.2
CI [14]: 0.9 to 18.2
CI [15]: 0.74 to 23.3
CI [16]: 0.17 to 79.6
CI [17]: 0.44 to 41.3
CI [18]: 1.38 to 11.7
CI [19]: 0.86 to 24.1
CI [20]: 0.66 to 17.8
CI [21]: 0.79 to 30.3
CI [22]: 0.28 to 86.3
CI [23]: 0.67 to 55.9
CI [24]: 0.77 to 24
CI [25]: 0.61 to 26.8
CI [26]: 0.32 to 66.8
CI [27]: 0.88 to 16.7
CI [28]: 0.69 to 27.7
CI [29]: 0.95 to 15.5
CI [30]: 0.66 to 28.1
CI [31]: 0.84 to 23.9
CI [32]: 0.53 to 37
CI [33]: 0.21 to 61.4
CI [34]: 0.86 to 28
CI [35]: 0.3 to 55.6
CI [36]: 0.42 to 57.2
CI [37]: 0.79 to 15
CI [38]: 0.76 to 18.2
CI [39]: 0.71 to 28.9
CI [40]: 0.93 to 39.6
CI [41]: 0.81 to 23.1
CI [42]: 0.72 to 29
CI [43]: 0.47 to 49.7
CI [44]: 0.97 to 12.8
CI [45]: 0.48 to 55.7
CI [46]: 0.37 to 46.7
CI [47]: 0.72 to 20.3
CI [48]: 0.63 to 38
CI [49]: 0.73 to 26.6
CI [50]: 0.84 to 15.2
CI [51]: 0.54 to 18.3

Structure (SMILES): O=C(N/N=C/c1cccs1)c1ccc2c(c1)OCO2
IC50 [52]: 74000 nM

Structure (SMILES): COc1cc(C(=O)N(C)/N=C/c2ccccc2)cc(OC)c1OC
IC50 [54]: 30 nM

Structure (SMILES): COc1cc(C(=O)N/N=C/c2cc3ccccc3s2)cc(OC)c1OC
IC50 [55]: 0.4 nM
IC50 [56]: 5 nM
IC50 [57]: 9 nM

Next, values leading:

half-life [1]: 20.1 to 21.1 h
Structure (SMILES): COc1cccc2c1C(=O)c1c(O)c3c(c(O)c1C2=O)C[C@@](O)(/C(CO)=N/NC(=O)CCCCCN1C(=O)C=CC1=O)C[C@@H]3OC1C[C@H](N)[C@H](O)[C@H](C)O1 (stereo partly drawn)

IC50 [53]: 350 nM
Structure (SMILES): O=C(N/N=C/c1ccsc1)c1ccc2c(c1)OCO2

remaining at 10 h, 100 µM [58]: > 93%
Structure (SMILES): O=C(N/N=C/c1ccccc1B(O)O)c1ccncc1
